# Laboratory results as given in US20240252501A1 (MORGANDANE SCIENTIFIC, LLC, priority 2016, published 2024).
# Read-outs that look alike come from different tables or passages of the source.
# How the values were obtained:
# [1] = Plasma rivaroxaban concentration-time data and noncompartmental PK: single 20 mg rivaroxaban alone (Period I) vs with steady-state verapamil 360 mg (Period III), mild renal impairment or normal renal function; conditions: for CL/F / half-life / Tmax: human, in vivo; for CL/F: CL/F/kg; for half-life: t1/2
# Protocol: Subjects with either mild renal impairment or with normal renal function were enrolled.
# Renal function of the subjects was determined by measuring creatinine clearance (CLcr) rates. Subjects who had CLCr≥90 ml/min were categorized as having normal renal function whereas subjects who had CLcr 50-79 ml/min were categorized as mild renal impaired. Blood samples were collected and processed according to the standard protocols.
# [2] = Example 1 rivaroxaban-verapamil drug-drug interaction study: rivaroxaban plasma levels; type: in vivo, human; conditions: concomitant verapamil vs rivaroxaban alone
# Protocol: Cmax and AUC values for each dose are calculated.
# prothrombin time = experiment: Prothrombin time (STAR Neoplastin method); type: in vivo, human
# From the text: As used herein, the term “prothrombin time” (PT) refers to a blood test that measures how long it takes blood to clot. In some embodiments, a prothrombin time test can be used to measure of a patient's haemostasis. In some embodiments, PT can be used to measure the effectiveness or exposure to a blood clotting drug. Persons having skill in the art sometimes interchangeably refer to a PT test as an INR. […] Additionally, PT measurements are subject to variability based on the test reagent and laboratory test ranges determined by each institution.
# (§1) Additional pharmacodynamic metrics are also gathered for each patient, including, but not limited to: prothrombin time (using the STAR Neoplastin® method) and Factor Xa activity.
# Blood samples were collected and processed according to the standard protocols.
# Factor Xa [3] = molecular target: T1, Factor Xa (Homo sapiens, UniProt P00742); experiment: Factor Xa activity in subjects; type: in vivo; conditions: concomitant verapamil vs rivaroxaban alone
# T1 construct: host or cells: human subjects (ex vivo pharmacodynamics)
# From the text: as §1
# [4] = Relationship between steady state rivaroxaban AUC and risk of major bleeding (FIG. 5); type: in vivo, human
# Protocol: All show the geometric mean plus or minus one standard deviation. […] These four show the geometric mean and the full minimum and maximum subject value range.
# Group “c” represents the average of the three subjects in Group “b” who had the highest AUCinf, which was about 8,143 μg·hr/L. The risk of major bleeding of the subjects in Group “c” were at least 5 times higher compared to the populations in Group “a” and not even visible on this scale.
# [5] = Reported rivaroxaban serious bleeding adverse events; type: in vivo, human; conditions: concomitantly administered patients, who are 22% of total population receiving rivaroxaban
# From the text: 8, 2015, American Heart Association, Scientific Sessions 2015, and published at http://www.abstractsonline.com/pp8/#!/3795/presentation/37668).
# [6] = fed subjects, studies 10989 and 11938, single 20 mg; cited from earlier work
# [7] = cited from earlier work
# Factor Xa [8] = molecular target: T1, Factor Xa; conditions: 10 mg dose, cited from earlier work
# [9] = cited from earlier work; remark: listed apart in the source
# [10] = cited from earlier work; remark: listed apart in the source
# P-gp [11] = molecular target: T2, P-gp (Homo sapiens, UniProt P08183); conditions: cell monolayers in vitro; cited from earlier work
# [12] = in vivo; cited from earlier work
# P-gp [13] = molecular target: T2, P-gp; conditions: cited from earlier work
# [14] = Period III (rivaroxaban and verapamil), Group 2: Normal Renal Function, individual subjects
# [15] = single 10 mg dose with a strong CYP3A4/Pgp inhibitor
# T1 sequence (P00742 235-488 limits assumed): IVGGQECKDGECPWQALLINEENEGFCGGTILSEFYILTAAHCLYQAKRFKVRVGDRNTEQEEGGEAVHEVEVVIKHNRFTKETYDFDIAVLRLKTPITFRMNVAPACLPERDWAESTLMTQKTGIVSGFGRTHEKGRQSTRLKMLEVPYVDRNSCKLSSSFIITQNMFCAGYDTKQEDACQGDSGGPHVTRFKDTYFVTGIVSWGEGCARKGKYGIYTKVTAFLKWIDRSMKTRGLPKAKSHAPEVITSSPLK
# T1 sequence (P00742 41-179 partner limits assumed): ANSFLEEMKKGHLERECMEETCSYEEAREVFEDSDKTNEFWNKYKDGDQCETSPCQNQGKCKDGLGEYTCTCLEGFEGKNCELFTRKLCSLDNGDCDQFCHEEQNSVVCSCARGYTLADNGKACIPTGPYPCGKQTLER
# T2 sequence (P08183 whole entry): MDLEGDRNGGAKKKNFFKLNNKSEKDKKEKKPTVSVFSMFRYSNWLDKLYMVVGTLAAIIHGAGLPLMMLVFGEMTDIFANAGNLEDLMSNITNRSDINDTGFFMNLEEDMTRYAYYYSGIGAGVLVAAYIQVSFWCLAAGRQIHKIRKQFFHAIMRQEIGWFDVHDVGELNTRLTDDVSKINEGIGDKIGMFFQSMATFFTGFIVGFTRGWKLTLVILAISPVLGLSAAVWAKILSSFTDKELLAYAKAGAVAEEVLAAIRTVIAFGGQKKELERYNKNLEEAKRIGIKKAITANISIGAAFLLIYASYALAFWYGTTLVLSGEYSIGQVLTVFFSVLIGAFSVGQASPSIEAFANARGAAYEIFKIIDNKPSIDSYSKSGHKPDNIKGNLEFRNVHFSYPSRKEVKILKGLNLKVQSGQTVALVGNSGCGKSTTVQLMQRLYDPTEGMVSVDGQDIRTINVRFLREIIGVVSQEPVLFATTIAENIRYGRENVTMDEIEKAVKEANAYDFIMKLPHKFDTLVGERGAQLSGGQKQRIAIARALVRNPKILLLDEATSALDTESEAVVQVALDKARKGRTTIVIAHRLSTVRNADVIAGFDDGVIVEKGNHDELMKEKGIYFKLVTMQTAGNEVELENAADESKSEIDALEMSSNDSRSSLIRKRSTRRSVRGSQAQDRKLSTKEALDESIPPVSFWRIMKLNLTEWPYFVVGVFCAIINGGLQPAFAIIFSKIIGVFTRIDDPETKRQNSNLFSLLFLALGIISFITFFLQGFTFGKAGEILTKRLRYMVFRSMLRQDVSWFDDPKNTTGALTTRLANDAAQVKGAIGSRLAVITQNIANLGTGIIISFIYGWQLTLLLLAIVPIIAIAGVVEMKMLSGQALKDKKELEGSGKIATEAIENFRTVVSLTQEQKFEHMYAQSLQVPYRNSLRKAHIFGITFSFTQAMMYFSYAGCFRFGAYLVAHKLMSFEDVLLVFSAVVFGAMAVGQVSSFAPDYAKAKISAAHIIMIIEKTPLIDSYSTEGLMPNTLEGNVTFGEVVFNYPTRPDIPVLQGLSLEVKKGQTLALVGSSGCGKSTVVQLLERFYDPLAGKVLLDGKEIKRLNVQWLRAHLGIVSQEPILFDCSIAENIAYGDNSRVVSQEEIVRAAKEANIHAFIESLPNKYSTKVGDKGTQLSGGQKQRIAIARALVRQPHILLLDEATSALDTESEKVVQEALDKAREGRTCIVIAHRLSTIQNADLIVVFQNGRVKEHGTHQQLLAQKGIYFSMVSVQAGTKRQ
structure (smiles),measurement,setting,value
"O=C(NC[C@H]1CN(c2ccc(N3CCOCC3=O)cc2)C(=O)O1)c1ccc(Cl)s1 [rivaroxaban, Rivaroxaban]",CL/F/kg,[1]; [14],1.18 mL/min/kg
same,CL/F,"[1]; 20 mg, Period I (rivaroxaban alone), Group 2: Normal Renal Function, outlier sample excluded, arithmetic mean",1.8 mL/min/kg
same,half-life,[1]; 20 mg,9.44 h
same,Tmax,[1]; 20 mg,0.5 h
same,CL/F,[1]; [14],1.11 mL/min/kg
same,CL/F,"[1]; Period III (rivaroxaban and verapamil), Group 2: Normal Renal Function, median",1.11 mL/min/kg
same,half-life,[1],6.56 h
same,Tmax,[1],0.5 h
same,rivaroxaban plasma concentrations,[2],higher rivaroxaban plasma concentrations
same,prothrombin time (PT),prothrombin time; concomitant verapamil vs rivaroxaban alone,prolonged PT
same,relationship between pharmacokinetics (plasma concentration) and pharmacodynamics (PT),"prothrombin time; normal renal function and mild renal insufficiency, Day 1 and Day 15",clear linear relationship
same,Factor Xa inhibition,Factor Xa [3],increased Factor Xa inhibition
same,risk of major bleeding (Group a),"[4]; AUC approximately 2,026 μg·hr/L",about 3%
same,risk of major bleeding vs Group a (Group b),"[4]; mild renal impairment, 20 mg rivaroxaban and 360 mg verapamil",2.5 times
same,risk of major bleeding vs Group a (Group c),[4]; three Group b subjects with highest AUCinf,at least 5 times
same,share of reported rivaroxaban serious bleeding adverse events,[5],30%
same,"AUC, average geometric mean (Group a)",[6],"approximately 2,026 μg·hr/L"
same,rivaroxaban dose eliminated in urine as unprocessed active drug,[7]; in vivo,~36%
same,rivaroxaban dose eliminated through active renal secretion,[7]; in vivo,30%
same,rivaroxaban dose eliminated through glomerular filtration,[7]; in vivo,6%
same,share of rivaroxaban clearance by CYP3A4,[7]; in vivo,approximately 18%
same,share of rivaroxaban metabolized by CYP2J2,[7]; in vivo,14%
same,rivaroxaban dose subject to metabolic degradation,[7]; liver oxidative and hydrolytic pathways,Approximately two-thirds
same,AUEC for Factor Xa inhibition vs healthy subjects,Factor Xa [8]; mild renal impairment,1.5 fold
same,AUEC for Factor Xa inhibition vs healthy subjects,Factor Xa [8]; moderate renal impairment,1.86 fold
same,AUEC for Factor Xa inhibition vs healthy subjects,Factor Xa [8]; severe renal impairment,2.0 fold
same,rivaroxaban exposure increase,[9]; concomitant clarithromycin,54%
same,rivaroxaban exposure increase,[9]; concomitant erythromycin,34%
same,rivaroxaban exposure increase,[9]; concomitant fluconazole,42%
same,"Cmax, upper boundary of 90% confidence interval","[10]; 20 mg rivaroxaban with food, study 11938",317 ng/mL
same,"steady state AUC, upper bound of 90% confidence interval (Label A)",[10]; 20 mg rivaroxaban,"about 3,792 μg·hr/L"
same,"steady state Cmax, upper bound of 90% confidence interval",[10]; 20 mg rivaroxaban,275 ng/mL
same,Cmax,[10]; [15],268 ng/mL
same,estimated steady state AUC (Label B),[10]; [15],"about 3,404 μg·hr/L"
same,"steady state AUC, upper boundary of 90% confidence interval (Label C)",[10]; single 20 mg dose after a meal,"about 2,448 μg·hr/L"
CC[C@H]1OC(=O)[C@H](C)[C@@H](O[C@H]2C[C@@](C)(OC)[C@@H](O)[C@H](C)O2)[C@H](C)[C@@H](O[C@@H]2O[C@H](C)C[C@H](N(C)C)[C@H]2O)[C@](C)(O)C[C@@H](C)C(=O)[C@H](C)[C@@H](O)[C@]1(C)O [erythromycin],inhibition of P-gp-mediated efflux of rivaroxaban,P-gp [11],did not inhibit
same,renal elimination (unchanged),[12],2-15%
COc1ccc(CCNCCCC(C#N)(c2ccc(OC)c(OC)c2)C(C)C)cc1OC (centres unmarked) [norverapamil],inhibitory potential toward P-gp,P-gp [13],have inhibitory potential toward P-gp
